Data taken from paper PMC7756392, “Syntheses of Thailandepsin B Pseudo‐Natural Products: Access to New Highly Potent HDAC Inhibitors via Late‐Stage Modification” (Chemistry (Weinheim an Der Bergstrasse, Germany), 2020).

Experiments:
acetylated α-tubulin = experiment: Western blot, acetylated α-tubulin in HL60 cells; assay type: cell-based; settings: for ac-tubulin: HL60 cells, 4 h
Protocol: (§1) LABTECH POLARstar OPTIMA plate reader (BMG Labtechnologies, Germany).
(§2) Western Blot: 2.5 x 10^5 HL60 cells were seeded in sterile 12-well plates and incubated with different concentrations of compound or DMSO for 4 h. Cells were washed with cold PBS, lysed with 90 µL SDS sample buffer (Cell Signaling, 62.5 mM Tris-HCl (pH 6.8 at 25°C), 2% w/v SDS, 10% v/v glycerol, 50 mM dithiothreitol, 0.01% bromophenol blue), shortly sonicated and heated to 95°C for 5 min. Cell extracts were used directly for SDS-PAGE or kept frozen at -20 […]
(§3) For the SDS-PAGE, 7 µL cell lysate were loaded on a 12.5% gel and the gel was run at 150V for approximately 1 h, followed by the transfer to a nitrocellulose membrane. The membrane was blocked with 5% milk in TBS-T 0.1% for 1 h at room temperature and washed (3 x 5 min) with TBS-T before adding the antibodies. Western blot analysis was performed with the following primary antibodies: anti-acetylated α-tubulin (Sigma-Aldrich, 1:1000), anti-acetyl-histone 3 (Millipore, 1:2000) and anti-GAPDH (Sigma-Aldrich, 1:5000) and secondary antibodies: anti-mouse-IgG-HRP (Sigma-Aldrich, 1:10000) and anti-rabbit IgG-HRP (Sigma- […]
(§4) Aldrich, 1:5000). The antibodies were all diluted in 3% milk in TBS-T 0.1%. Detection was performed via enhanced chemiluminescence (ECL Prime) using a FUSION-SL (PEQLAB) and the FUSION-CAPT software.
(§5) Figure 4: Western blot of acetyl-α-tubulin, acetyl-H3 and GAPDH after treatment of HL60 cells with different concentrations of 33 or DMSO for 4 h. GAPDH was used as loading control, DMSO as negative control. […]

acetylated histone 3 = experiment: Western blot, acetyl-histone 3 in HL60 cells; assay type: cell-based
Protocol: as §1, §2, §3, §4, §5

## CCCC[C@H]1NC(=O)C[C@@H](/C=C/CCSC(C)=O)OC(=O)C[C@H](O)[C@@H]([C@@H](C)CC)NC(=O)[C@@H](C)NC1=O [compound 33]
Acetylated α-tubulin; 0.0001 µM
  ac-tubulin: 1.1%
Acetylated α-tubulin; 0.01 µM
  ac-tubulin: 1.1%
Acetylated α-tubulin; 0.1 µM
  ac-tubulin: 1.3%
Acetylated α-tubulin; 1 µM
  ac-tubulin: 1.4%
Acetylated α-tubulin; western blot
  levels of acetylated α-tubulin with increasing inhibitor concentration (in words): Constant levels
Acetylated histone 3; HL60 cells, 4 h
  isotype selectivity for class I HDACs in cells (western blot): selective inhibition of class I HDACs
Acetylated histone 3; HL60 cells, 4 h, 0.0001 µM
  ac-histone 3: 1.1%
Acetylated histone 3; HL60 cells, 4 h, 0.001 µM
  ac-histone 3: 0.9%
Acetylated histone 3; HL60 cells, 4 h, 0.01 µM
  ac-histone 3: 1.8%
Acetylated histone 3; HL60 cells, 4 h, 0.1 µM
  ac-histone 3: 4.4%
Acetylated histone 3; western blot
  levels of acetylated histone 3 with increasing inhibitor concentration (in words): increasing levels
